“Also recorded” adds a separate entry of the source.
Assays:
Akt [1] = assay: Western blot of Akt phosphorylation in rat primary cortical neurons (Shank3 knock down vs control); assay type: cell-based; details: for phosphorylation of Akt T308: 10 μM TG003, 60 minutes, DIV 16
Text: E18 primary rat cortical neurons were dissected, cultured and infected 6 days after plating (DIV6) with indicated lentiviruses at MOI 10, as previously described (Proenca et al., 2013). Lentiviruses were produced by calcium phosphate transfection of HEK293T cells with packaging plasmids (Life Technologies) and transfer plasmid in 10 cm dishes. Cells were transferred to fresh medium 6 hrs. post-transfection. Four days post-transfection, the cell medium was collected and pooled from several dishes, cleared of cellular debris by 0.45 μm filtration, and concentrated 100× by centrifugation at 19,000 g for 90 min in a Beckman Ultracentrifuge using a SW28/SW32 rotor. Pellets were suspended in PBS/0.5% BSA and viral titer was determined by ELISA quantification of viral p24 antigen (Zeptometrix Corp, USA). For shRNA plasmid generation, oligonucleotides were annealed and ligated into lentiviral transfer plasmid pLKO.1-GFP vector at the AgeI/EcoRI sites. The target sequences of shRNAs that target rat and mouse Shank3 (5′-3′) are: […] […] (SEQ ID NO: 2), and […] (SEQ ID NO: 3). The latter was previously reported (Verpelli et al., 2011). A luciferase-targeting sequence was used as an shRNA control: […] (SEQ ID NO: 4).
For immunoprecipitation (IP) of HA-tagged Akt, neurons were lysed in IP buffer (20 mM Tris-HCl pH 7.4, 3 mM EDTA, 3 mM EGTA, 150 mM NaCl, 0.5% NP-40, and protease/phosphatase inhibitor cocktails (Roche)). Lysates were cleared by centrifugation at 13,000 rpm for 10 min and lysates normalized for protein abundance were immunoprecipitated with rabbit HA-tag antibody for 1 h at 4° C. Immuno-complexes were then captured by incubation for an additional 1 hr with Protein A agarose beads (Roche). Beads were washed three times with IP buffer and bound proteins were eluted with 2×SDS-PAGE sample buffer, then boiled for 5 min. For IP and analysis of ubiquitinated Myc-Clk2, neurons were lysed in Ubiquitin IP buffer (20 mM Tris-HCl pH 7.4, 3 mM EDTA, 3 mM EGTA, 150 mM NaCl, 1% Triton X-100, protease/phosphatase inhibitor cocktails (Roche), 5 mM N-ethylmaleimide, and 3 mM iodoacetamide) containing 1% SDS. Lysates were boiled for 20 min to denature proteins and then centrifuged for 10 min at 13,000 rpm. Lysates were subsequently diluted to 0.1% SDS with Ubiquitin IP buffer and immunoprecipitated with Myc antibody for 1 h. Complexes were then captured by addition of Protein G agarose (Roche) and additional 1 h incubation. Beads were washed 3× and eluted with 2×SDS-PAGE sample buffer, then boiled for 5 min. Samples prepared for SDS-PAGE were then resolved on 4-12% Novex gels (Life Technologies), transferred to PVDF membranes, blocked in 5% low-fat milk in TBS/0.1% Tween-20, and incubated overnight with primary antibodies. After washing and 1 h incubation with secondary antibodies, proteins were visualized by Chemiluminescent detection (Amersham-GE Healthcare Life Sciences).
To determine whether Shank3 deficiency impacts the PI3K-Akt-mTOR signaling pathway (FIG. 1A, gray highlight), lentiviral-mediated delivery of shRNAs was used to knock-down Shank3 in rat primary cortical neuron cultures. Cultured rat primary cortical neurons were transduced with lentiviruses encoding control shRNA or Shank3-shRNA at six days in vitro (DIV 6) and treated with BDNF (50 ng/ml) for 15 or 30 min at 14-16 days in vitro (DIV 14-16). Cell lysates were prepared in RIPA buffer prior to resolution by SDS-PAGE and Western blotting.
Cortical neurons, transduced with shRNA-expressing lentiviruses on DIV 6, were treated with 50 ng/ml BDNF or okadaic acid (100 nM) on DIV 16 and cell lysates were resolved by SDS-PAGE, followed by Western blotting.

Shank3^ΔC/ΔC mice = assay: Three-chamber social interaction task; assay type: in vivo, mouse
Description: The three-chamber social interaction task was performed in a three-chambered arena with transparent walls and retractable doorways to allow mice access to flanking chambers (FIG. 9F). During testing, the arena was placed in a lighted, sound-proof box with no side-biasing features. A video camera was mounted above for recording. The test comprised three phases with different stimuli placed in the side chambers successively between phases. Each stimulus (social or inanimate) was placed within a small wire cage for immobilization while test mice were allowed to freely investigate the stimuli. In Phase 1, identical inanimate objects (inverted ceramic cups with blue stripe) were placed in both side chambers. An intruder mouse (same strain) was introduced in one side chamber as the social stimulus in Phase 2. In Phase 3, a second intruder mouse was placed in the other side chamber (novel social stimulus). Each phase consisted of a 7.5 minute exploration period with 5 minutes in the home cage between phases. The test animal was placed in the center chamber to start the task. Animals were habituated to the arena 24 hours before testing during which time they were allowed to freely explore the entire arena, with empty wire cages in side chambers, for 10 minutes. Social interaction time for a given phase was scored by cumulative social/investigative behaviors, in particular sniffing and actively seeking a stimulus. Proximity to a stimulus without investigation was not counted. Preference index was calculated by subtracting interaction time with one stimulus from that of the other stimulus in the same testing phase then dividing this by the sum of interaction times for both stimuli and converting this to a percentage. Positive scores indicate a preference for the first stimulus in the equation. […]

Akt [2] = assay: In vivo Akt phosphorylation in Shank3^ΔC/ΔC mice; set-up: species or system mouse; details: 30 mg/kg TG003 intraperitoneal
Text: To determine whether the above findings extend to autism spectrum disorder (ASD)-like behaviors, a Shank3-deficient mouse model was generated by ablation of Shank3 exon 21 (FIGS. 8A and 8B) as previously described (Kouser et al., Journal of Neuroscience 33, 18448-18468, 2013; Duffney et al., Cell reports 11, 1400-1413, 2015). To generate Shank3 exon 21-deleted mice, the exon 21 genomic region of Shank3 (2464 bp in size) was replaced by homologous recombination with a loxP-TK_Neo-loxP cassette. The Neo cassette was flanked by a 3 kb 5′ homology arm and a 1.6 kb 3′ homology arm. Linearized targeting vector DNA was electroporated into C57BL6/J ES cells, and G418 resistant ES clones were first screened by nested PCR, and then subjected to Southern blot analysis. For Southern analysis, genomic DNA was digested with restriction enzyme(s), and hybridized with probes positioned outside the 5′ and 3′ homologous regions. Targeted ES clones were used for blastocyst injection, and chimeric males were mated with transgenic Cre-expressing C57B1/6 mice females to remove the neomycin resistance cassette. Animals without the neo cassette were used as F1 mice to establish the Shank3 exon 21-deleted (Shank3^ΔC/ΔC) colony.
The major Shank3 isoforms were absent in the homozygous mice (Shank3^ΔC/ΔC), while faster-migrating, truncated fragments were detected (FIG. 8C).

SMILES	phosphorylation of Akt T308 (Akt [1]; Shank3 knock down neurons)	phosphorylation of Akt T308 (Akt [1]; control neurons)	total distance travelled (Shank3^ΔC/ΔC mice; phase 1 or phase 2, TG003-treated mice)	preference for social interaction (S1 versus O1 interaction times) (Shank3^ΔC/ΔC mice; phase 2, 30 mg/kg TG003 i.p. 6-8 hours before testing, 30 mg/kg)	social investigation after delay (Shank3^ΔC/ΔC mice; phase 2, 72 hours after TG003 treatment)	time spent in S1 chamber (Shank3^ΔC/ΔC mice; phase 2, TG003-treated Shank3^ΔC/ΔC mice)	Akt phosphorylation in vivo (Akt [2])	Akt phosphorylation (Akt [1]; Shank3 knock down primary neurons, SC79 treatment)
CCN1/C(=C/C(C)=O)Sc2ccc(OC)cc21 [TG003, (Z)-1-(3-ethyl-5-methoxy-2,3-dihydrobenzothiazol-2-ylidene)propan-2-one]	restored to control levels in Shank3 knock down neurons	refractory to TG003	no change from wild type in total distance travelled	recovered normal preference for social interaction; also recorded: corrected	maintained 72 hours after treatment	restores the time spent in the Si chamber to wild type levels	increases Akt phosphorylation	–
CCOC(=O)C1=C(N)Oc2ccc(Cl)cc2C1C(C#N)C(=O)OCC (centres unmarked) [SC79]	–	–	–	–	–	–	–	restored Akt and rpS6 phosphorylation

Source: US20180296537A1, “METHODS AND COMPOSITIONS FOR DIAGNOSING, TREATING, AND MONITORING TREATMENT OF SHANK3 DEFICIENCY ASSOCIATED DISORDERS” (Novartis AG, priority 2015, published 2018)
